Measurements reported in publication PMC5761851, “Application of a phenotypic drug discovery strategy to identify biological and chemical starting points for inhibition of TSLP production in lung epithelial cells” (PLoS ONE, 2018).
Where two headings read alike, the source gives them in different places.

Tests used:
[1] = target: T1, M4 (Homo sapiens, UniProt P08173); assay: BioPrint panel: M4 (h) (antagonist); assay type: binding; settings: 1 micromolar, read-out: percentage of inhibition of activity
T1 construct: purchased Eurofins Pharma Discovery Services (KinaseProfiler; Cerep BioPrint panel)
Excerpt: (§1) Supplement pone.0189247.s004.xlsx, sheet "Bioprint Selectivity Panel" | column: %

[2] = tested on: SKCa channel; assay: BioPrint panel: SKCa channel (antagonist); assay type: binding; settings: 1 micromolar
Excerpt: as §1

[3] = target: T2, FLT-1 kinase (VEGFR1) (Homo sapiens, UniProt P17948); assay: BioPrint panel: FLT-1 kinase (h) (VEGFR1); assay type: biochemical; settings: 1 micromolar, read-out: percentage of inhibition of activity
T2 construct: purchased Eurofins Pharma Discovery Services (KinaseProfiler; Cerep BioPrint panel)
Excerpt: as §1

[4] = target: T3, H3 (Homo sapiens, UniProt Q9Y5N1); assay: BioPrint panel: H3 (h) (agonist); assay type: binding; settings: 1 micromolar, read-out: percentage of inhibition of activity
T3 construct: purchased Eurofins Pharma Discovery Services (KinaseProfiler; Cerep BioPrint panel)
Excerpt: as §1

[5] = target: T4, BACE-1 (beta -secretase) (Homo sapiens, UniProt P56817); assay: BioPrint panel: BACE-1 (h) (beta -secretase); assay type: biochemical; settings: 1 micromolar, read-out: percentage of inhibition of activity
T4 construct: purchased Eurofins Pharma Discovery Services (KinaseProfiler; Cerep BioPrint panel)
Excerpt: as §1

[6] = tested on: Ca2+ channel (L, dihydropyridine site); assay: BioPrint panel: Ca2+ channel (L, dihydropyridine site) (antagonist); assay type: binding; settings: 1 micromolar
Excerpt: as §1

[7] = target: T5, 5-HT7 (Homo sapiens, UniProt P34969); assay: BioPrint panel: 5-HT7 (h) (agonist); assay type: binding; settings: 1 micromolar, read-out: percentage of inhibition of activity
T5 construct: purchased Eurofins Pharma Discovery Services (KinaseProfiler; Cerep BioPrint panel)
Excerpt: as §1

[8] = target: T6, beta 3 (Homo sapiens, UniProt P13945); assay: BioPrint panel: beta 3 (h) (antagonist); assay type: binding; settings: 1 micromolar, read-out: percentage of inhibition of activity
T6 construct: purchased Eurofins Pharma Discovery Services (KinaseProfiler; Cerep BioPrint panel)
Excerpt: as §1

[9] = target: T7, GABAA1 (a1, b2, g2) (Homo sapiens, UniProt P14867+P47870); assay: BioPrint panel: GABAA1 (h) (a1, b2, g2)(agonist); assay type: binding; settings: 1 micromolar, read-out: percentage of inhibition of activity
T7 construct: purchased Eurofins Pharma Discovery Services (KinaseProfiler; Cerep BioPrint panel)
Excerpt: as §1

[10] = target: T8, ERalpha (Homo sapiens, UniProt P03372); assay: BioPrint panel: ERalpha (h) (agonist fluoligand); assay type: binding; settings: 1 micromolar, read-out: percentage of inhibition of activity
T8 construct: purchased Eurofins Pharma Discovery Services (KinaseProfiler; Cerep BioPrint panel)
Excerpt: as §1

[11] = target: T9, ERK2 (P42mapk) (Homo sapiens, UniProt P28482); assay: BioPrint panel: ERK2 (h) (P42mapk); assay type: biochemical; settings: 1 micromolar, read-out: percentage of inhibition of activity
T9 construct: purchased Eurofins Pharma Discovery Services (KinaseProfiler; Cerep BioPrint panel)
Excerpt: as §1

[12] = target: T10, A2A (Homo sapiens, UniProt P29274); assay: BioPrint panel: A2A (h) (agonist); assay type: binding; settings: 1 micromolar, read-out: percentage of inhibition of activity
T10 construct: purchased Eurofins Pharma Discovery Services (KinaseProfiler; Cerep BioPrint panel)
Excerpt: as §1

[13] = target: T11, DNA-PK (Homo sapiens, UniProt P78527); assay: DNA-PK activity (SelectScreen); settings: biochemical dose response, duplicate; read-out: Inhibition of indicated activity (IC50, μM): DNA-PK
T11 construct: Thermo Fisher Scientific SelectScreen (contract assay service)
Procedure: Kinase selectivity was evaluated at Eurofins Pharma Discovery Services using a selection of 125 representative kinases tested at a concentration of 10 μM in duplicate (S3 Table). IC50 values for selected activities were further characterized at 9 duplicate concentrations. DNA-PK activity was determined at the SelectScreen® Biochemical kinase Profiling Service of Thermo Fisher Scientific.

[14] = target: T12, V2 (Homo sapiens, UniProt P30518); assay: BioPrint panel: V2 (h) (agonist); assay type: binding; settings: 1 micromolar, read-out: percentage of inhibition of activity
T12 construct: purchased Eurofins Pharma Discovery Services (KinaseProfiler; Cerep BioPrint panel)
Excerpt: as §1

[15] = target: T13, MAO-A (Rattus norvegicus, UniProt P21396); assay: BioPrint panel: MAO-A (antagonist); assay type: binding; settings: 1 micromolar, read-out: percentage of inhibition of activity
T13 construct: purchased Eurofins Pharma Discovery Services (KinaseProfiler; Cerep BioPrint panel)
Excerpt: as §1

[16] = tested on: 104 binding assays and 41 cell based and enzyme assays; assay: BioPrint general selectivity panel; settings: 1 μM
Procedure: General selectivity profiling was performed at Eurofins Pharma Discovery Services using the BioPrint® panel and reference database. The panel included 104 binding assays (non-peptide, peptide and nuclear receptors, ion channels and amine transporters) and 41 cell based and enzyme assays (including 10 kinases, 9 proteases and 5 phosphodiesterases) (S4 Table). More than 70% were human targets. Compound 4 was tested at a concentration of 1 μM in duplicate (10 μM for P-gp and CYP enzymes). The resulting bioactivity fingerprint was compared with a database of >2,500 BioPrint marketed drugs and reference compounds. IC50 values for selected activities were further characterized at 8 concentrations in duplicate.

[17] = target: T14, P-gp (Homo sapiens, UniProt P08183); assay: BioPrint panel: P-gp (MDR1-MDCKII, calcein AM substrate); assay type: in vitro ADME; settings: 10 micromolar
T14 construct: purchased Eurofins Pharma Discovery Services (KinaseProfiler; Cerep BioPrint panel)
Excerpt: as §1

[18] = target: T15, FP (Homo sapiens, UniProt P43088); assay: BioPrint panel: FP (h) (agonist); assay type: binding; settings: 1 micromolar, read-out: percentage of inhibition of activity
T15 construct: purchased Eurofins Pharma Discovery Services (KinaseProfiler; Cerep BioPrint panel)
Excerpt: as §1

[19] = tested on: kainate; assay: BioPrint panel: kainate (agonist); assay type: binding; settings: 1 micromolar
Excerpt: as §1

[20] = tested on: Guanylyl cylcase; assay: BioPrint panel: Guanylyl cylcase (activator); assay type: biochemical; settings: 1 micromolar
Excerpt: as §1

[21] = target: T16, V1a (Homo sapiens, UniProt P37288); assay: BioPrint panel: V1a (h) (agonist); assay type: binding; settings: 1 micromolar, read-out: percentage of inhibition of activity
T16 construct: purchased Eurofins Pharma Discovery Services (KinaseProfiler; Cerep BioPrint panel)
Excerpt: as §1

[22] = target: T17, motilin (Homo sapiens, UniProt O43193); assay: BioPrint panel: motilin (h) (agonist); assay type: binding; settings: 1 micromolar, read-out: percentage of inhibition of activity
T17 construct: purchased Eurofins Pharma Discovery Services (KinaseProfiler; Cerep BioPrint panel)
Excerpt: as §1

[23] = tested on: N muscle-type; assay: BioPrint panel: N muscle-type (h) (antagonist); assay type: binding, human; settings: 1 micromolar
Excerpt: as §1

[24] = tested on: ATPase (Na+/K+); assay: BioPrint panel: ATPase (Na+/K+); assay type: biochemical; settings: 1 micromolar
Excerpt: as §1

[25] = target: T18, mu (MOP) (Homo sapiens, UniProt P35372); assay: BioPrint panel: mu (MOP) (h) (agonist); assay type: binding; settings: 1 micromolar, read-out: percentage of inhibition of activity
T18 construct: purchased Eurofins Pharma Discovery Services (KinaseProfiler; Cerep BioPrint panel)
Excerpt: as §1

[26] = target: T19, H1 (Homo sapiens, UniProt P35367); assay: BioPrint panel: H1 (h) (antagonist); assay type: binding; settings: 1 micromolar, read-out: percentage of inhibition of activity
T19 construct: purchased Eurofins Pharma Discovery Services (KinaseProfiler; Cerep BioPrint panel)
Excerpt: as §1

[27] = target: T20, PDE3B (Homo sapiens, UniProt Q13370); assay: BioPrint panel: PDE3B (h); assay type: biochemical; settings: 1 micromolar, read-out: percentage of inhibition of activity
T20 construct: purchased Eurofins Pharma Discovery Services (KinaseProfiler; Cerep BioPrint panel)
Excerpt: as §1

[28] = tested on: Phosphorylation of Akt in THP1 cells; assay: PI3Kδ dependent pAkt phosphorylation in M-CSF stimulated THP-1 cells; assay type: cell-based
Procedure: Quantification of enzymatic p38 activity and p38-dependent TNF production in THP-1 cells was performed as previously described. Enzymatic Syk kinase activity assays and Syk dependent LAD2 cells degranulation assays were performed as previously described. PI3Kδ dependent pAkt phosphorylation in macrophage colony-stimulating factor (M-CSF) stimulated THP-1 cells was measured as previously described.

[29] = tested on: sigma (non-selective); assay: BioPrint panel: sigma (non-selective) (h) (agonist); assay type: binding, human; settings: 1 micromolar
Excerpt: as §1

[30] = target: T21, MT1 (ML1A) (Homo sapiens, UniProt P48039); assay: BioPrint panel: MT1 (ML1A) (h) (agonist); assay type: binding; settings: 1 micromolar, read-out: percentage of inhibition of activity
T21 construct: purchased Eurofins Pharma Discovery Services (KinaseProfiler; Cerep BioPrint panel)
Excerpt: as §1

[31] = target: T22, AT1 (Homo sapiens, UniProt P30556); assay: BioPrint panel: AT1 (h) (antagonist); assay type: binding; settings: 1 micromolar, read-out: percentage of inhibition of activity
T22 construct: purchased Eurofins Pharma Discovery Services (KinaseProfiler; Cerep BioPrint panel)
Excerpt: as §1

[32] = target: T23, COX1 (Homo sapiens, UniProt P23219); assay: BioPrint panel: COX1 (h); assay type: biochemical; settings: 1 micromolar, read-out: percentage of inhibition of activity
T23 construct: purchased Eurofins Pharma Discovery Services (KinaseProfiler; Cerep BioPrint panel)
Excerpt: as §1

[33] = target: T24, IP (PGI2) (Homo sapiens, UniProt P43119); assay: BioPrint panel: IP (PGI2) (h) (agonist); assay type: binding; settings: 1 micromolar, read-out: percentage of inhibition of activity
T24 construct: purchased Eurofins Pharma Discovery Services (KinaseProfiler; Cerep BioPrint panel)
Excerpt: as §1

[34] = tested on: Na+ channel (site 2); assay: BioPrint panel: Na+ channel (site 2) (antagonist); assay type: binding; settings: 1 micromolar
Excerpt: as §1

T24 sequence (P43119 whole entry): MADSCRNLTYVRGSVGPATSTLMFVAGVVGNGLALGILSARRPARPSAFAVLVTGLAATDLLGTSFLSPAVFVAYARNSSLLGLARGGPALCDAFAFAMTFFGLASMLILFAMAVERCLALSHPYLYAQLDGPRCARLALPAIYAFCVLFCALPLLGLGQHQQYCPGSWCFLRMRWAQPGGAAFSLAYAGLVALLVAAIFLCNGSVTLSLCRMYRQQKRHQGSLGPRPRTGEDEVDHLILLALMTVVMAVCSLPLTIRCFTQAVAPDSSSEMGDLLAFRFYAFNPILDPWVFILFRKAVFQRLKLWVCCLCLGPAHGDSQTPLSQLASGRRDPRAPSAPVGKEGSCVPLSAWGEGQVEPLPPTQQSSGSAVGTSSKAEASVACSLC
T6 sequence (P13945 whole entry): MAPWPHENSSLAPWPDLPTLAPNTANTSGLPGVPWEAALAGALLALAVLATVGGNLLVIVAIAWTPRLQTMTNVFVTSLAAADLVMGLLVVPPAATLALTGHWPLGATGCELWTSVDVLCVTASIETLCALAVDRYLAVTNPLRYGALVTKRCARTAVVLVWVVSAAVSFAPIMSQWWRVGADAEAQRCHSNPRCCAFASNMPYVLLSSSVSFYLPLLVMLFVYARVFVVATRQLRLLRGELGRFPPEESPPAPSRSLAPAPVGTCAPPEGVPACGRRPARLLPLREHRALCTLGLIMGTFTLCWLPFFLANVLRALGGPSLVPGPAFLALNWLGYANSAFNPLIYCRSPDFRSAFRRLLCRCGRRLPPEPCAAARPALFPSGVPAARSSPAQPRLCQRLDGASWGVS
T16 sequence (P37288 whole entry): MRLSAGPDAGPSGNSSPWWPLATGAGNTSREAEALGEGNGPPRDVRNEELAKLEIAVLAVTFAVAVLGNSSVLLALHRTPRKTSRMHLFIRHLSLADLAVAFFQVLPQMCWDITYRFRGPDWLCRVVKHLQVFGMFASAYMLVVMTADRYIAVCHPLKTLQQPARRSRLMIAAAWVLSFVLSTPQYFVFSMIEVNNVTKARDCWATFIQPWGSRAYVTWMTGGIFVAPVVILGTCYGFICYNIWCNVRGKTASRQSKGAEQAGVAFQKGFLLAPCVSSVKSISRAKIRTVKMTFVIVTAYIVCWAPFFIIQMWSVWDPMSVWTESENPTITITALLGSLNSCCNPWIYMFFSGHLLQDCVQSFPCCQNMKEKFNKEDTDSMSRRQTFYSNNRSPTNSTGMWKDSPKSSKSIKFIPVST
T1 sequence (P08173 whole entry): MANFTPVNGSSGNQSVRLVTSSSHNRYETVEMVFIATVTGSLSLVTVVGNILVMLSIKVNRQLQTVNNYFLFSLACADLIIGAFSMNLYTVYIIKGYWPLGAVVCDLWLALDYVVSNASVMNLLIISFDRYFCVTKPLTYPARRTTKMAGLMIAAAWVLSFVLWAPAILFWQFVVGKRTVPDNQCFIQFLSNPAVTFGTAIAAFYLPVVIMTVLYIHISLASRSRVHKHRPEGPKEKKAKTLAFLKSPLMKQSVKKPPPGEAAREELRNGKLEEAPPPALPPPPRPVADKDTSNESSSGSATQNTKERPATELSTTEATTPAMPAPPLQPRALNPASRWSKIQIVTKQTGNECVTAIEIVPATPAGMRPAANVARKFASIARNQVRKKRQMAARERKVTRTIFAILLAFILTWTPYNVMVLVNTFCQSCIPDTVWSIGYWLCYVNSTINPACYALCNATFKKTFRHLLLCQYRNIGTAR
T15 sequence (P43088 whole entry): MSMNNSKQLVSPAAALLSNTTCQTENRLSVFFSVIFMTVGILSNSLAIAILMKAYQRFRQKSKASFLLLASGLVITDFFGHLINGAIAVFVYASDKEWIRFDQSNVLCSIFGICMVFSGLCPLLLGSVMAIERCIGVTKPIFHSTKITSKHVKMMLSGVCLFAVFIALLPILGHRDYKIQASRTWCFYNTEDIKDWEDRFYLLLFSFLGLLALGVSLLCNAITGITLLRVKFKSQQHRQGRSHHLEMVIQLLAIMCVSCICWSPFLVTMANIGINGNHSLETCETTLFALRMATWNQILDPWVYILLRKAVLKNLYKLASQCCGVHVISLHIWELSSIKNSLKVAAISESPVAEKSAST
T18 sequence (P35372 whole entry): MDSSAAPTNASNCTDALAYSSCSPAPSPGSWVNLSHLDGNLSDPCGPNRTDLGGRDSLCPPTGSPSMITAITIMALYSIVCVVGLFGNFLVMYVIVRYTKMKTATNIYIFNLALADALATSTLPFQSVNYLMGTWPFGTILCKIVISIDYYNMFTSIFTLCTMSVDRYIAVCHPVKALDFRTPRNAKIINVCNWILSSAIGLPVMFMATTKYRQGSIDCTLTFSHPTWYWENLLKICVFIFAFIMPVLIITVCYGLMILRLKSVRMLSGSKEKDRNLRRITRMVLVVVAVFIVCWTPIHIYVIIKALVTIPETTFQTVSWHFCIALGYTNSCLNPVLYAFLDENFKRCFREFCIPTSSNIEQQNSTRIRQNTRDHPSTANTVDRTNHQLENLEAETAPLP
T7 sequence (P14867 28-456): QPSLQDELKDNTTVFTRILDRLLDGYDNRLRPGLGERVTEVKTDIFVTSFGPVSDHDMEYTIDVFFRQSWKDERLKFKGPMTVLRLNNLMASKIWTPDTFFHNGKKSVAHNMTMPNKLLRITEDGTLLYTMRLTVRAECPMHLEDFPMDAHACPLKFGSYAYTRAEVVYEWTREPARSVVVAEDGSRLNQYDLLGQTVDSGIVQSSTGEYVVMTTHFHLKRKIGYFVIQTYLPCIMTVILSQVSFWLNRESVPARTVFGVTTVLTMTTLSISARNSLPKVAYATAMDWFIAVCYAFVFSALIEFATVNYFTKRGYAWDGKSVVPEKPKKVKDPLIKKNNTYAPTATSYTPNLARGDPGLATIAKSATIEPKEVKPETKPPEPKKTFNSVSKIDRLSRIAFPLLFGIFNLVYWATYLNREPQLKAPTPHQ
T7 sequence (P47870 25-512 limits assumed): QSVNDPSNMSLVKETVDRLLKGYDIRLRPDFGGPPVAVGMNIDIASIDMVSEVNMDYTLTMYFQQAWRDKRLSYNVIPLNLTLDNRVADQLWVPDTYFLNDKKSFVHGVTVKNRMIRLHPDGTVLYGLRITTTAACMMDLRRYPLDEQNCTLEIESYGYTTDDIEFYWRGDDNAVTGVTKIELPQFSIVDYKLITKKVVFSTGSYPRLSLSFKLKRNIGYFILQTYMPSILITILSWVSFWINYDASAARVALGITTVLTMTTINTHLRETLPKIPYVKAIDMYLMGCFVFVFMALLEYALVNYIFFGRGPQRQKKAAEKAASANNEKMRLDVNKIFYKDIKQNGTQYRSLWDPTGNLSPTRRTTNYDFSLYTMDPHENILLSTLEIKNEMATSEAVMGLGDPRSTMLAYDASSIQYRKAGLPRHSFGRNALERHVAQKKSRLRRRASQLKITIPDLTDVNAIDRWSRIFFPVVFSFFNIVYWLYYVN
T7 sequence (P18507 40-475 partner): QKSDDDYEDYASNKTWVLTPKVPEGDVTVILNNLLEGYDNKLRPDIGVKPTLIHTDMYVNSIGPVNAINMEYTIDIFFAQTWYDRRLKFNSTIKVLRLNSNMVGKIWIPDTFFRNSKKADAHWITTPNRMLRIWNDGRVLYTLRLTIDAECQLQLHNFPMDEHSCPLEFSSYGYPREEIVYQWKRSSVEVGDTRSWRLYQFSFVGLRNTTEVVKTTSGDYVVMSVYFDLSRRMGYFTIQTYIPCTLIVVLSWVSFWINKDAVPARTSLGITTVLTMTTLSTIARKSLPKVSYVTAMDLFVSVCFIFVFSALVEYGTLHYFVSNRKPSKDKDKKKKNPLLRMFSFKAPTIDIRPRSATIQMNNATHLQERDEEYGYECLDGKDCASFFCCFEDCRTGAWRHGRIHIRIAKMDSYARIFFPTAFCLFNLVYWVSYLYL
T13 sequence (P21396 whole entry): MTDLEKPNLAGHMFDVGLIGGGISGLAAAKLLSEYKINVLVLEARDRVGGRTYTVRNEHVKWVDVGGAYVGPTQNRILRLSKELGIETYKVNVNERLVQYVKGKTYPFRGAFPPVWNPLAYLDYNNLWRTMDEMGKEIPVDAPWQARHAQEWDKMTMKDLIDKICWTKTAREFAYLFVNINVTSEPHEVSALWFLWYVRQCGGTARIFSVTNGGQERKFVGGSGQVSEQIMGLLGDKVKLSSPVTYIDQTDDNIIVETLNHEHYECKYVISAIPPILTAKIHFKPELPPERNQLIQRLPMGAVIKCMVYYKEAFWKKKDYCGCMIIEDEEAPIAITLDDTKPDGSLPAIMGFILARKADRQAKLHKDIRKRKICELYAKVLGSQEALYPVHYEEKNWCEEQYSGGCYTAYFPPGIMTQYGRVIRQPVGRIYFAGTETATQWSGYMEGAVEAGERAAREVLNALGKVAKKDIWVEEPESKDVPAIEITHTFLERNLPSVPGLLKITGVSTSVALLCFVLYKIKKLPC
T12 sequence (P30518 whole entry): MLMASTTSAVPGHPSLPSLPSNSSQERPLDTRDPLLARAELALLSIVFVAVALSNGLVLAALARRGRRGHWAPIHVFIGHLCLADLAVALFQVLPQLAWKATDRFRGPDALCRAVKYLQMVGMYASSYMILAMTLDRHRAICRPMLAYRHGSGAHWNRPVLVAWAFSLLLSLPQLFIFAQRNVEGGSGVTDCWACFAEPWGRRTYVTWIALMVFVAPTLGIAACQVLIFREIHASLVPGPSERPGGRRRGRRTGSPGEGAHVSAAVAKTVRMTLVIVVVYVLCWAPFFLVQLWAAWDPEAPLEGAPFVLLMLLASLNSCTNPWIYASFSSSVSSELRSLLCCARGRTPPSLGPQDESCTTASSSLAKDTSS

Cn1cc(-c2cccc(-c3nc(C(=O)NC4C5CC6CC4CC(O)(C6)C5)c(N)nc3N)c2)cn1 (stereo not drawn) [compound 4]
inhibition at 1 µM [1]: 0.7%
percentage of inhibition of activity [2]: -10.2%
inhibition at 1 µM [3]: -4.8%
inhibition at 1 µM [4]: 7.4%
inhibition at 1 µM [5]: -7.3%
percentage of inhibition of activity [6]: -3.5%
inhibition at 1 µM [7]: -4.3%
inhibition at 1 µM [8]: 8.1%
inhibition at 1 µM [9]: -16%
inhibition at 1 µM [10]: -10.3%
inhibition at 1 µM [11]: 14.3%
inhibition at 1 µM [12]: -5.3%
IC50 [13]: 0.348 µM
inhibition at 1 µM [14]: 0%
inhibition at 1 µM [15]: 6.4%
Inhibition of 129 additional activities [16]: less than 50%
percentage of inhibition of activity [17]: 82.8%
inhibition at 1 µM [18]: 4.8%
percentage of inhibition of activity [19]: 4.1%
percentage of inhibition of activity [20]: 0%
inhibition at 1 µM [21]: -9.3%
inhibition at 1 µM [22]: -4.9%
percentage of inhibition of activity [23]: -17.1%
percentage of inhibition of activity [24]: 0%
inhibition at 1 µM [25]: -2.6%
inhibition at 1 µM [26]: -0.5%
inhibition at 1 µM [27]: 5.8%
IC50 ([28]; Homo sapiens, THP-1, M-CSF stimulated, geometric mean, read-out: Activity in reference cell based assay (IC50, μM) (95% CI) Phosphorylation of Akt in THP1 cells): 0.099 µM
IC50 ([28]; Homo sapiens, THP-1, individual values, read-out: Cellular activity (IC50, mM) Akt phosphorylation in THP1): 0.085 µM
IC50 ([28]; individual values, read-out: Cellular activity (IC50, mM) Akt phosphorylation in THP1): 0.117 µM
percentage of inhibition of activity [29]: 5.9%
inhibition at 1 µM [30]: 4.2%
inhibition at 1 µM [31]: -6.4%
inhibition at 1 µM [32]: -4.3%
inhibition at 1 µM [33]: -5.1%
percentage of inhibition of activity [34]: 29.7%
